Like-named read-outs stand apart in the source and are kept apart here.
Biological target: T1, NS3-NS4A protease (Hepatitis C virus genotype 1a, UniProt P27958)
T1 construct: Recombinant E. coli or Baculovirus full-length NS3 was diluted to 3.33 μM with assay buffer; made in house; host or cells: E. coli or baculovirus (BV) system
Experiment: NS3-NS4A protease assay (NS3 inhibition assay, RETS1 substrate), Section B
Format: biochemical
Procedure: NS3 complex formation with NS4A-2
Recombinant E. coli or Baculovirus full-length NS3 was diluted to 3.33 μM with assay buffer and the material transferred to an eppendorf tube and place in water bath in 4° C. refrigerator. The appropriate amount of NS4A-2 to 8.3 mM in assay buffer was added to equal the volume of NS3 in step 2.1.1 (conversion factor −3.8 mg/272 μL assay buffer). The material was transferred to an eppendorf tube and placed in a water bath in a 4° C. refrigerator.
After equilibration to 4° C., equal volumes of NS3 and NS4A-2 solutions were combined in an eppendorf tube, mixed gently with a manual pipettor, and the mixture incubated for 15 minutes in the 4° C. water bath. Final concentrations in the mixture were 1.67 μM NS3, 4.15 mM NS4A-2 (2485-fold molar excess NS4A-2).
After 15 minutes at 4° C., the NS3/NS4A-2 eppendorf tube was removed and placed in a room temperature water bath for 10 minutes. NS3/NS4A-2 was aliquoted at appropriate volumes and store at −80° C. (E. coli NS3 run at 2 nM in assay, aliquot at 25 μL. BV NS3 run at 3 nM in assay, aliquot at 30 μL.
Step 2.2.5. Sample compounds were dissolved to 10 mM in DMSO then diluted to 2.5 mM (1:4) in DMSO.
Step 2.2.6. The E. coli NS3/NS4A-2 was diluted to 4 nM NS3 (1:417.5 of 1.67 μM stock−18 μL 1.67 μM stock+7497 μL assay buffer).
The BV NS3/NS4A-2 was diluted to 6 nM NS3 (1:278.3 of 1.67 μM stock−24 μL 1.67 μM stock+6655 μL assay buffer).
Step 2.2.7. Using the manual multichannel pipettor, and being careful not to introduce bubbles into the plate, 50 μL assay buffer was added to wells A01-H01 of a black Costar 96-well polypropylene storage plate.
Step 2.2.8. Using the manual multichannel pipettor, and being careful not to introduce bubbles into the plate, 50 μL of diluted NS3/NS4A-2 from step 2.2.6 was added to wells A02-H12 of plate in step 2.2.7.
Step 2.2.9. Using the manual multichannel pipettor, and being careful not to introduce bubbles into the plate, 25 μL of the wells in drug dilution plate in step 2.2.5 were transferred to corresponding wells in assay plate in step 2.2.8. The tips on multichannel pipettor were changed for each row of compounds transferred.
Step 2.2.10. Using the manual multichannel pipettor, and being careful not to introduce bubbles into the plate, the wells from the assay plate in step 2.2.9 were mixed by aspirating and dispensing 35 μL of the 75 μL in each well five times. The tips on multichannel pipettor were changed for each row of wells mixed.
Step 2.2.11. The plate was covered with a polystyrene plate lid, and the plate from step 2.2.10 containing NS3 protease and sample compounds was pre-incubated 10 minutes at room temperature.
While the plate from step 2.2.11 was pre-incubating, the RETS1 substrate was diluted in a 15 mL polypropylene centrifuge tube. The RETS1 substrate was diluted to 8 μM (1:80.75 of 646 μM stock−65 μL 646 μM stock+5184 μL assay buffer).
After the plate in step 2.2.11 was done pre-incubating, and using the manual multichannel, 25 μL of substrate was added to all wells on the plate. The contents of the wells were quickly mixed, as in step 2.2.10, but mixing 65 μL of the 100 μL in the wells.
The plate was read in kinetic mode on the Molecular Devices SpectraMax Gemini XS plate reader. Reader settings: Read time: 30 minutes, Interval: 36 seconds, Reads: 51, Excitation λ: 335 nm, Emission λ: 495 nm, cutoff: 475 nm, Automix: off, Calibrate: once, PMT: high, Reads/well: 6, Vmax pts: 21 or 28/51 depending on length of linearity of reaction.
IC50s were determined using a four parameter curve fit equation, and converted to Ki's using the following Km's:
where Ki=IC50/(1+[S]/Km))

T1 sequence (P27958 1027-1657): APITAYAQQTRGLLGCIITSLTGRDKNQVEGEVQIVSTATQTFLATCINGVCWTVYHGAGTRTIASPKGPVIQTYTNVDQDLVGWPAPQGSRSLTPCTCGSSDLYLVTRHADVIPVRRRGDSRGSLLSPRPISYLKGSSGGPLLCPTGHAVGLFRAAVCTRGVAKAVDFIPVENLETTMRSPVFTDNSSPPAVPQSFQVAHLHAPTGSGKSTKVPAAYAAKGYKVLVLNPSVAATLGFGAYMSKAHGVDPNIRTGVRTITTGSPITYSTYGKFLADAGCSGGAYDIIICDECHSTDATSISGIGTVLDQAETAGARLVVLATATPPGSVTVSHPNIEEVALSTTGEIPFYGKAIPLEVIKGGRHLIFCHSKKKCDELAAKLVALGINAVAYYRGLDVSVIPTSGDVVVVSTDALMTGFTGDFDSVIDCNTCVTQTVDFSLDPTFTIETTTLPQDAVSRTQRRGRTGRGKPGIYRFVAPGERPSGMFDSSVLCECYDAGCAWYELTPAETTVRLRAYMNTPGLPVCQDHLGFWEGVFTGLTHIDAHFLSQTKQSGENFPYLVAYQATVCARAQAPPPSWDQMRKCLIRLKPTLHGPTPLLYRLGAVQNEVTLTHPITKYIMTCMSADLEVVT

| Structure (SMILES) | IC50 (read-out: NS3-NS4A IC50) | IC50 |
| --- | --- | --- |
| CC(C)(C)OC(=O)N[C@H]1CCCCC/C=C\[C@@H]2C[C@@]2(C(=O)O)NC(=O)[C@@H]2C[C@@H](OC(=O)N3CCc4cccc(C(F)(F)F)c4C3)CN2C1=O [AR00294382, (1S,4R,6S,14S,18R)-14-tert-Butoxycarbonylamino-2,15-dioxo-18-(8-trifluoromethyl-3,4-dihydro-1H-isoquinoline-2-carbonyloxy)-3,16-diaza-tricyclo[14.3.0.0^4,6]nonadec-7-ene-4-carboxylic acid] | < 1 µM |  |
| CC(C)(C)OC(=O)N[C@H]1CCCCC/C=C\[C@@H]2C[C@@]2(C(=O)O)NC(=O)[C@@H]2C[C@@H](OC(=O)N3CCc4cc(C(F)(F)F)ccc4C3)CN2C1=O [AR00294383, (1S,4R,6S,14S,18R)-14-tert-Butoxycarbonylamino-2,15-dioxo-18-(6-trifluoromethyl-3,4-dihydro-1H-isoquinoline-2-carbonyloxy)-3,16-diaza-tricyclo[14.3.0.0^4,6]nonadec-7-ene-4-carboxylic acid] | < 10 µM |  |
| CC(C)[C@@H](NC(=O)OC(C)(C)C)C(=O)N[C@H]1CCCCC/C=C\[C@@H]2C[C@@]2(C(=O)O)NC(=O)[C@@H]2C[C@@H](OC(=O)N3CCc4ccccc4C3)CN2C1=O [AR00298989, (1S,4R,6S,14S,18R)-14-(2-tert-Butoxycarbonylamino-3-methyl-butyrylamino)-18-(3,4-dihydro-1H-isoquinoline-2-carbonyloxy)-2,15-dioxo-3,16-diaza-tricyclo[14.3.0.0^4,6]nonadec-7-ene-4-carboxylic acid] |  | < 10 µM |
| CC(C)[C@@H](N)C(=O)N[C@H]1CCCCC/C=C\[C@@H]2C[C@@]2(C(=O)O)NC(=O)[C@@H]2C[C@@H](OC(=O)N3CCc4ccccc4C3)CN2C1=O [AR00298990, (1S,4R,6S,14S,18R)-14-(2-Amino-3-methyl-butyrylamino)-18-(3,4-dihydro-1H-isoquinoline-2-carbonyloxy)-2,15-dioxo-3,16-diaza-tricyclo[14.3.0.0^4,6]nonadec-7-ene-4-carboxylic acid] |  | < 10 µM |
| CC(C)(C)OC(=O)N[C@H]1CCCCC/C=C\[C@@H]2C[C@@]2(C(=O)O)NC(=O)[C@@H]2C[C@@H](OC(=O)N3CCc4ccccc4C3CN3CCCCC3)CN2C1=O (stereo partly drawn) [AR00301383, (1S,4R,6S,14S,18R)-14-tert-Butoxycarbonylamino-2,15-dioxo-18-(1-piperidin-1-ylmethyl-3,4-dihydro-1H-isoquinoline-2-carbonyloxy)-3,16-diaza-tricyclo[14.3.0.0^4,6]nonadec-7-ene-4-carboxylic acid] | < 10 µM |  |
| CC(C)(C)OC(=O)N[C@H]1CCCCC/C=C\[C@@H]2C[C@@]2(C(=O)O)NC(=O)[C@@H]2C[C@@H](OC(=O)N3CCc4ccc(Cl)cc4C3)CN2C1=O [AR00304062, (1S,4R,6S,14S,18R)-14-tert-Butoxycarbonylamino-18-(7-chloro-3,4-dihydro-1H-isoquinoline-2-carbonyloxy)-2,15-dioxo-3,16-diaza-tricyclo[14.3.0.0^4,6]nonadec-7-ene-4-carboxylic acid] | < 10 µM |  |
| CC(C)(C)OC(=O)N[C@H]1CCCCC/C=C\[C@@H]2C[C@@]2(C(=O)O)NC(=O)[C@@H]2C[C@@H](OC(=O)N3CCc4nc(N)sc4C3)CN2C1=O [AR00304154, (1S,4R,6S,14S,18R)-18-(2-Amino-6,7-dihydro-4H-thiazolo[5,4-c]pyridine-5-carbonyloxy)-14-tert-butoxycarbonylamino-2,15-dioxo-3,16-diaza-tricyclo[14.3.0.0^4,6]nonadec-7-ene-4-carboxylic acid] | < 10 µM |  |
| Cc1nc2c(s1)CN(C(=O)O[C@@H]1C[C@H]3C(=O)N[C@]4(C(=O)O)C[C@H]4/C=C\CCCCC[C@H](NC(=O)OC(C)(C)C)C(=O)N3C1)CC2 [AR00304158, (1S,4R,6S,14S,18R)-14-tert-Butoxycarbonylamino-18-(2-methyl-6,7-dihydro-4H-thiazolo[5,4-c]pyridine-5-carbonyloxy)-2,15-dioxo-3,16-diaza-tricyclo[14.3.0.0^4,6]nonadec-7-ene-4-carboxylic acid] | < 50 µM |  |
| CC(C)(C)OC(=O)N[C@H]1CCCCC/C=C\[C@@H]2C[C@@]2(C(=O)O)NC(=O)[C@@H]2C[C@@H](NC(=O)N3CCCc4ccccc43)CN2C1=O [AR00304160, (1S,4R,6S,14S,18R)-14-tert-Butoxycarbonylamino-18-[(3,4-dihydro-2H-quinoline-1-carbonyl)-amino]-2,15-dioxo-3,16-diaza-tricyclo[14.3.0.0^4,6]nonadec-7-ene-4-carboxylic acid] | < 50 µM |  |
| CC(C)(C)OC(=O)N[C@H]1CCCCC/C=C\[C@@H]2C[C@@]2(C(=O)O)NC(=O)[C@@H]2C[C@@H](OC(=O)N3CCc4ncncc4C3)CN2C1=O [AR00304183, (1S,4R,6S,14S,18R)-14-tert-Butoxycarbonylamino-18-(7,8-dihydro-5H-pyrido[4,3-d]pyrimidine-6-carbonyloxy)-2,15-dioxo-3,16-diaza-tricyclo[14.3.0.0^4,6]nonadec-7-ene-4-carboxylic acid] | < 50 µM |  |
| CC(C)(C)OC(=O)N[C@H]1CCCCCCC[C@@H]2C[C@@]2(C(=O)O)NC(=O)[C@@H]2C[C@@H](OC(=O)N3CCc4ccccc4C3)CN2C1=O [AR00312023] | < 1 µM |  |
| CC(C)(C)OC(=O)N[C@H]1CCCCC/C=C\[C@@H]2C[C@@]2(C(=O)O)NC(=O)[C@@H]2C[C@@H](OC(=O)N3CCc4cc(N)ccc4C3)CN2C1=O [AR00314578, (1S,4R,6S,14S,18R)-18-(6-Amino-3,4-dihydro-1H-isoquinoline-2-carbonyloxy)-14-tert-butoxycarbonylamino-2,15-dioxo-3,16-diaza-tricyclo[14.3.0.0^4,6]nonadec-7-ene-4-carboxylic acid] | < 1 µM |  |
| CC(=O)Nc1nc2c(s1)CN(C(=O)O[C@@H]1C[C@H]3C(=O)N[C@]4(C(=O)O)C[C@H]4/C=C\CCCCC[C@H](NC(=O)OC(C)(C)C)C(=O)N3C1)CC2 [AR00314685, (1S,4R,6S,14S,18R)-18-(2-Acetylamino-6,7-dihydro-4H-thiazolo[5,4-c]pyridine-5-carbonyloxy)-14-tert-butoxycarbonylamino-2,15-dioxo-3,16-diaza-tricyclo[14.3.0.0^4,6]nonadec-7-ene-4-carboxylic acid] | < 50 µM |  |
| O=C(NC1CCOC1)N[C@H]1CCCCC/C=C\[C@@H]2C[C@@]2(C(=O)O)NC(=O)[C@@H]2C[C@@H](OC(=O)N3CCc4ccccc4C3)CN2C1=O (stereo partly drawn) [AR00320221, (1S,4R,6S,14S,18R)-18-(3,4-Dihydro-1H-isoquinoline-2-carbonyloxy)-2,15-dioxo-14-[3-(tetrahydro-furan-3-yl)-ureido]-3,16-diaza-tricyclo[14.3.0.0^4,6]nonadec-7-ene-4-carboxylic acid] | < 1 µM |  |
| O=C(N[C@H]1CCCCC/C=C\[C@@H]2C[C@@]2(C(=O)O)NC(=O)[C@@H]2C[C@@H](OC(=O)N3Cc4cc(Cl)c(Cl)cc4C3)CN2C1=O)O[C@@H]1CCOC1 [AR00320445, (1S,4R,6S,14S,18R)-18-(5,6-Dichloro-1,3-dihydro-isoindole-2-carbonyloxy)-2,15-dioxo-14-(tetrahydro-furan-3R-yloxycarbonylamino)-3,16-diaza-tricyclo[14.3.0.0^4,6]nonadec-7-ene-4-carboxylic acid] | < 10 µM |  |
| COc1ccccc1C1CCN(C(=O)O[C@@H]2C[C@H]3C(=O)N[C@]4(C(=O)O)C[C@H]4/C=C\CCCCC[C@H](NC(=O)OC(C)(C)C)C(=O)N3C2)CC1 [AR00320576, (1S,4R,6S,14S,18R)-14-tert-Butoxycarbonylamino-18-[4-(2-methoxy-phenyl)-piperidine-1-carbonyloxy]-2,15-dioxo-3,16-diaza-tricyclo[14.3.0.0^4,6]nonadec-7-ene-4-carboxylic acid] | < 10 µM |  |
